Measurements published in US20260265305A1, “POLYPEPTIDE DERIVATIVE FOR ORAL DELIVERY” (Hangzhou Sciwind Biosciences Co., Ltd., priority 2023, published 2026).
Values joined by “and” are separate entries in the source; they are usually repeats but may differ in a detail not shown here. Identical values can stand only once. Numbered stars: 1 amine (or outer) side, 2 acyl side, 3 side chain; on linkers, the order of the positions; unused ones are H or OH. Peptide text beside a SMILES is read from it. * marks the point of attachment. C20 diacid = O=C(O)CCCCCCCCCCCCCCCCCCC(=O)*; C18 diacid = O=C(O)CCCCCCCCCCCCCCCCC(=O)*; C16 diacid = O=C(O)CCCCCCCCCCCCCCC(=O)*; γGlu = O=C(O)[C@H](CCC(=O)[*:2])N[*:1]; AEEA = NCCOCCOCC(=O)O

How the values were obtained:
[1] = Heat accelerated stability assay of polypeptide solutions (40° C., pH about 7.4), reversed phase chromatography; format: physicochemical; details: 40° C.; for Concentration change on 7 d / Concentration change on 26 d: pH about 7.4, 1 mg/mL; for Concentration change on 7 d / Purity change on 7 d: Day 7; for Concentration change on 26 d / Purity change on 26 d: Day 26; for Purity change on 7 d / Purity change on 26 d: reversed phase chromatography 214 nm; for Purity change on 7 d: purity on 7 d − purity on 0 d; for Purity change on 26 d: purity on 26 d − purity on 0 d
Description: A stability test chamber (BINDER GmbH), a 0.01 mg-readability balance (METTLER TOLEDO), a pH meter (METTLER TOLEDO), a biosafety cabinet (ESCO), T2G-II small-sized motor-driven capping machine (Changsha zhongya pharmaceutical equipment co. LTD), a high-speed refrigerated centrifuge (Eppendorf), a sterilizer cabinet (Shinva Medical), Agilent 1260 high-performance liquid chromatographer, and Sepax Bio-C18 4.6*250 mm 3 μm 200 Å reversed phase column were used.
Reagents and consumables included: ultrapure water (18.2 MΩ, self-made), acetonitrile (HPLC grade), trifluoroacetic acid (HPLC grade), sodium dihydrogen phosphate (pharmaceutical grade, Hunan Jiudian Hongyang Pharmaceutical Co., Ltd), hydrochloric acid (pharmaceutical grade, Hunan Er-Kang Pharmaceutical Co., Ltd), sodium hydroxide (Analytical Reagent grade, Hushi®, Sinopharm Chemical Reagent Co., Ltd), vials, rubber stoppers, disposable syringes, and sterile filters.
The lyophilized powder (1 mg/mL) of the polypeptide derivative prepared in accordance with the method of Example 1 was mixed with sodium dihydrogen phosphate (1.42 mg/mL) and dissolved in ultrapure water in the indicated mass-volume ratios. After adjusting pH to about 7.4 with hydrochloric acid/sodium hydroxide, the solution was filtered into a sterilized vial in a clean bench using a 0.22 μm sterile filter. The vial was then capped and placed into the stability test chamber at 40° C. Detections were made on Days 7 (7d) and 26 (26d), and during the assay, changes in the characteristics and properties of the polypeptide were observed and recorded. The sample was then centrifuged for 3 min at 10,000 rpm at 4° C., and the supernatant was transferred to a liquid phase sample vial for detecting the concentration and purity of the polypeptides using liquid phase chromatography described as below, wherein the concentration of the polypeptide=peak area/injection volume/extinction coefficient/60×flow rate, and the purity of the polypeptide=target peak area/total peak area×100%.
Conditions of the reversed phase chromatography Flow rate: 1.0 ml/min; Autosampler temperature: 15° C.; Column temperature: 25° C.; Detection wavelengths: 280 nm and 214 nm; Mobile phase A: 100% H2O+0.05% TFA; Mobile phase B: 100% ACN; and Gradient of elution listed in Table 6: […]

[2] = target: T1, calcitonin receptor (hCTR) (Homo sapiens, UniProt P30988); assay: Calcitonin receptor agonism, CRE-luciferase assay in stably transfected CHO-K1/CALCR/Ga15 cells; format: cell-based; details: incubation of 24 hours; Table 4; read-out: EC50, activity against the calcitonin receptor in cells
T1 construct: host or cells: CHO-K1/CALCR/Ga15 cells, further stably transfected with a CRE-luciferase plasmid
T1 sequence (P30988 25-474): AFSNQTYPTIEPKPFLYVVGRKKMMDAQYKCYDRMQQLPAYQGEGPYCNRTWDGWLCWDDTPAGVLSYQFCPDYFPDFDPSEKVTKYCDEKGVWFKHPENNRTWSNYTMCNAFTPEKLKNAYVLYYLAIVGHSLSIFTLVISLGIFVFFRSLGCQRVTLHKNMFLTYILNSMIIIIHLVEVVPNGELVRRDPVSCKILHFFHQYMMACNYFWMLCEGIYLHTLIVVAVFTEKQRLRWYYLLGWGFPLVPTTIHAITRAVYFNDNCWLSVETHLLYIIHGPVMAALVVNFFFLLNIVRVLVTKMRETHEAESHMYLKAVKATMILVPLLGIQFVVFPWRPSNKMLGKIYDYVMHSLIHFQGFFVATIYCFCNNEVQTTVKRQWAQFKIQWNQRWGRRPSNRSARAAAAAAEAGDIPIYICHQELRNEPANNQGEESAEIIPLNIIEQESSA
Description: Using the standard protocol, CHO-K1/CALCR/Ga15 cells (purchased from GenScript, with the calcitonin receptor constructed already) were transfected with a plasmid containing a luciferase expression cassette driven by multiple copies of cAMP response elements (CREs). The cells were cultured in an F12 medium containing 200 ug/mL Zeocin, 2 ug/mL puromycin, and 100 ug/mL hygromycin to afford a stably transfected calcitonin receptor/CRE-luc cell line.
To each well of a white 96-well plate was added 50 μL of the tested sample solution at a respective concentration.
The stably transfected calcitonin receptor/CRE-luc CHO cells were resuspended in the growth medium at a certain density, and 50 μL of the cell suspension was added at a density of about 20,000 cells per well to the white 96-well plate containing the tested sample solution. After incubation of 24 hours at 37° C. and 5% CO2, 100 μL of a Luciferase substrate was added to each well, incubated for 3 minutes, and finally was tested for luminescence on SpectraMax L (Molecular Devices) with the software SoftMax Pro 7.0.3 GxP. A standard curve was plotted using the fluorescent intensities for calculation of EC50.

[3] = target: T2, amylin receptor (hAMY3R) (Homo sapiens, UniProt O60896+P30988); assay: Amylin receptor agonism testing, CRE-luciferase assay in stably transfected CHO-K1/Ga15/AMY3 cells; format: cell-based; details: incubation of 24 hours; Table 3; read-out: EC50, activity against the amylin receptor in cells
T2 construct: host or cells: CHO-K1/Ga15/AMY3 cells, further stably transfected with a CRE-luciferase plasmid
T2 sequence (P30988 25-474): T1 sequence (P30988 25-474)
T2 sequence (O60896 24-148): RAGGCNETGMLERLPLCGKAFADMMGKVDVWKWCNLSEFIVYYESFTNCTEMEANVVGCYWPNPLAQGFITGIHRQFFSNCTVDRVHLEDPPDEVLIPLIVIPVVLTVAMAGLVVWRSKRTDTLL

Compound | Concentration change on 7 d [1] | Concentration change on 26 d [1] | Purity change on 7 d [1] | Purity change on 26 d [1] | EC50 [2] | EC50 [3]
M20: SEQ ID NO. 4 ASQLSTAVLGRLSDELHRLQDYPRTDVGSGSP-NH2, N terminus, C20 diacid + γGlu + 6 AEEAs ({C20 diacid-γGlu-AEEA-AEEA-AEEA-AEEA-AEEA-AEEA}-ASQLSTAVLGRLSDELHRLQDYPRTDVGSGSP-NH2) | No change (concentration change of less than 1% (denoted as “no change”)) | −3.662% | No change | −1.59% |  | 
D2: SEQ ID NO. 5 CSNLSTCVLGKLSQELHKLQTYPRTNTGSGTP-NH2, no modification, no fatty acid [reference compound] | −40% and −40.064% |  |  |  |  | 
M19: SEQ ID NO. 4 ASQLSTAVLGRLSDELHRLQDYPRTDVGSGSP-NH2, N terminus, C20 diacid + γGlu + 4 AEEAs ({C20 diacid-γGlu-AEEA-AEEA-AEEA-AEEA}-ASQLSTAVLGRLSDELHRLQDYPRTDVGSGSP-NH2) |  | −1.589% | No change | nearly no noticeable change in purity |  | 

Next, values leading:

Concentration change on 7 d [1] | Concentration change on 26 d [1] | Purity change on 7 d [1] | Purity change on 26 d [1] | EC50 [2] | EC50 [3] | Compound
−2.280% | −7.796% | −1.67% | −4.82% | 0.12 nM |  | CC(C)C[C@H](NC(=O)[C@H](CCCNC(=N)N)NC(=O)CNC(=O)[C@H](CC(C)C)NC(=O)[C@@H](NC(=O)[C@H](C)NC(=O)[C@@H](NC(=O)[C@H](CO)NC(=O)[C@H](CC(C)C)NC(=O)[C@H](CCC(N)=O)NC(=O)[C@H](CO)NC(=O)[C@H](C)NC(=O)CC[C@H](NC(=O)CCCCCCCCCCCCCCC(=O)O)C(=O)O)[C@@H](C)O)C(C)C)C(=O)N[C@@H](CO)C(=O)N[C@@H](CC(=O)O)C(=O)N[C@@H](CCC(=O)O)C(=O)N[C@@H](CC(C)C)C(=O)N[C@@H](Cc1c[nH]cn1)C(=O)N[C@@H](CCCNC(=N)N)C(=O)N[C@@H](CC(C)C)C(=O)N[C@@H](CCC(N)=O)C(=O)N[C@@H](CC(=O)O)C(=O)N[C@@H](Cc1ccc(O)cc1)C(=O)N1CCC[C@H]1C(=O)N[C@@H](CCCNC(=N)N)C(=O)N[C@H](C(=O)N[C@@H](CC(=O)O)C(=O)N[C@H](C(=O)NCC(=O)N[C@@H](CO)C(=O)NCC(=O)N[C@@H](CO)C(=O)N1CCC[C@H]1C(N)=O)C(C)C)[C@@H](C)O [M9] ({C16 diacid-γGlu}-ASQLSTAVLGRLSDELHRLQDYPRTDVGSGSP-NH2)
 |  |  |  |  | 0.033 nM | H-ASQLSTAVLGRLSQELHRLQDYPRTDVGSGSP-NH2 [M5]
−1.388% | −4.522% | −1.66% | −2.01% |  | 0.044 nM | CC(C)C[C@H](NC(=O)[C@H](CCCNC(=N)N)NC(=O)CNC(=O)[C@H](CC(C)C)NC(=O)[C@@H](NC(=O)[C@H](C)NC(=O)[C@@H](NC(=O)[C@H](CO)NC(=O)[C@H](CC(C)C)NC(=O)[C@H](CCC(N)=O)NC(=O)[C@H](CO)NC(=O)[C@H](C)NC(=O)COCCOCCNC(=O)COCCOCCNC(=O)COCCOCCNC(=O)COCCOCCNC(=O)COCCOCCNC(=O)COCCOCCNC(=O)COCCOCCNC(=O)COCCOCCNC(=O)CC[C@H](NC(=O)CCCCCCCCCCCCCCCCCCC(=O)O)C(=O)O)[C@@H](C)O)C(C)C)C(=O)N[C@@H](CO)C(=O)N[C@@H](CC(=O)O)C(=O)N[C@@H](CCC(=O)O)C(=O)N[C@@H](CC(C)C)C(=O)N[C@@H](Cc1c[nH]cn1)C(=O)N[C@@H](CCCNC(=N)N)C(=O)N[C@@H](CC(C)C)C(=O)N[C@@H](CCC(N)=O)C(=O)N[C@@H](CC(=O)O)C(=O)N[C@@H](Cc1ccc(O)cc1)C(=O)N1CCC[C@H]1C(=O)N[C@@H](CCCNC(=N)N)C(=O)N[C@H](C(=O)N[C@@H](CC(=O)O)C(=O)N[C@H](C(=O)NCC(=O)N[C@@H](CO)C(=O)NCC(=O)N[C@@H](CO)C(=O)N1CCC[C@H]1C(N)=O)C(C)C)[C@@H](C)O [M21] ({C20 diacid-γGlu-AEEA-AEEA-AEEA-AEEA-AEEA-AEEA-AEEA-AEEA}-ASQLSTAVLGRLSDELHRLQDYPRTDVGSGSP-NH2)
 | −5.493% | 2.59% | −2.19% |  | 0.015 nM | CC(C)C[C@H](NC(=O)[C@H](CCCNC(=N)N)NC(=O)CNC(=O)[C@H](CC(C)C)NC(=O)[C@@H](NC(=O)[C@H](C)NC(=O)[C@@H](NC(=O)[C@H](CO)NC(=O)[C@H](CC(C)C)NC(=O)[C@H](CCC(N)=O)NC(=O)[C@H](CO)NC(=O)[C@H](C)NC(=O)COCCOCCNC(=O)COCCOCCNC(=O)CC[C@H](NC(=O)CCCCCCCCCCCCCCCCC(=O)O)C(=O)O)[C@@H](C)O)C(C)C)C(=O)N[C@@H](CO)C(=O)N[C@@H](CC(=O)O)C(=O)N[C@@H](CCC(=O)O)C(=O)N[C@@H](CC(C)C)C(=O)N[C@@H](Cc1c[nH]cn1)C(=O)N[C@@H](CCCNC(=N)N)C(=O)N[C@@H](CC(C)C)C(=O)N[C@@H](CCC(N)=O)C(=O)N[C@@H](CC(=O)O)C(=O)N[C@@H](Cc1ccc(O)cc1)C(=O)N1CCC[C@H]1C(=O)N[C@@H](CCCNC(=N)N)C(=O)N[C@H](C(=O)N[C@@H](CC(=O)O)C(=O)N[C@H](C(=O)NCC(=O)N[C@@H](CO)C(=O)NCC(=O)N[C@@H](CO)C(=O)N1CCC[C@H]1C(N)=O)C(C)C)[C@@H](C)O [M22] ({C18 diacid-γGlu-AEEA-AEEA}-ASQLSTAVLGRLSDELHRLQDYPRTDVGSGSP-NH2)
−2.290% | −10.562% | −1.66% | −5.98% |  |  | CC(C)C[C@H](NC(=O)[C@H](CCCNC(=N)N)NC(=O)CNC(=O)[C@H](CC(C)C)NC(=O)[C@@H](NC(=O)[C@H](C)NC(=O)[C@@H](NC(=O)[C@H](CO)NC(=O)[C@H](CC(C)C)NC(=O)[C@H](CCC(N)=O)NC(=O)[C@H](CO)NC(=O)[C@H](C)NC(=O)[C@H](CCC(=O)O)NC(=O)CCCCCCCCCCCCCCCCCCC(=O)O)[C@@H](C)O)C(C)C)C(=O)N[C@@H](CO)C(=O)N[C@@H](CC(=O)O)C(=O)N[C@@H](CCC(=O)O)C(=O)N[C@@H](CC(C)C)C(=O)N[C@@H](Cc1c[nH]cn1)C(=O)N[C@@H](CCCNC(=N)N)C(=O)N[C@@H](CC(C)C)C(=O)N[C@@H](CCC(N)=O)C(=O)N[C@@H](CC(=O)O)C(=O)N[C@@H](Cc1ccc(O)cc1)C(=O)N1CCC[C@H]1C(=O)N[C@@H](CCCNC(=N)N)C(=O)N[C@H](C(=O)N[C@@H](CC(=O)O)C(=O)N[C@H](C(=O)NCC(=O)N[C@@H](CO)C(=O)NCC(=O)N[C@@H](CO)C(=O)N1CCC[C@H]1C(N)=O)C(C)C)[C@@H](C)O [M10] ({C20 diacid}-EASQLSTAVLGRLSDELHRLQDYPRTDVGSGSP-NH2)
